Experimental data: ChEMBL document CHEMBL1201862, “PubChem BioAssay data set” (2004)
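Values below derive from 48-hour exposures of cells grown in 96-well plates, with endpoints linearly interpolated between the two concentrations bracketing the appropriate inhibition level. Here, GI50 denotes the concentration required for 50% inhibition of growth.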 Activity calls are given as the source filed them. Rule as the data show it: active = GI50 up to about 1.1 µM and inactive = higher.

Tests used:
Assay in all cases: DTP human tumour cell line panel, 48 h
SK-OV-3 = test system: SK-OV-3
SK-MEL-5 = test system: SK-MEL-5
RXF 393 = test system: RXF 393
HL-60 = test system: HL-60
COLO 205 = test system: COLO 205
CAKI-1 = test system: CAKI-1
NCI-H23 = test system: NCI-H23
NCI-H460 = test system: NCI-H460
HCT-15 = test system: HCT-15
KM-20L2 = test system: KM-20L2
SW-620 = test system: SW-620
SK-MEL-28 = test system: SK-MEL-28
HOP-92 = test system: HOP-92
UO-31 = test system: UO-31
Malme-3M = test system: Malme-3M
NCI-H522 = test system: NCI-H522
OVCAR-5 = test system: OVCAR-5
NCI-H226 = test system: NCI-H226
BT-549 = test system: BT-549
DU-145 = test system: DU-145

With CCOC(=O)NC(=O)c1cn(CCCOC(=O)NCCCCCCNC(=O)OCCCn2cc(C(=O)NC(=O)OCC)c(=O)[nH]c2=O)c(=O)[nH]c1=O the GI50 (SK-OV-3) was 66.1 µM (inactive), the GI50 (SK-MEL-5) was 37.5 µM (inactive) and the GI50 (RXF 393) was > 10 µM (inactive). For the same compound, the GI50 (HL-60) was 16.7 µM (inactive), the GI50 (COLO 205) was 19.8 µM (inactive) and the GI50 (CAKI-1) was 11.9 µM (inactive). The GI50 (NCI-H23) was > 10 µM (inactive), the GI50 (NCI-H460) was 77.4 µM (inactive) and the GI50 (HCT-15) was 28.2 µM. For the same compound, the GI50 (KM-20L2) was 50 µM (inactive), the GI50 (SW-620) was 26 µM (inactive) and the GI50 (SK-MEL-28) was 28.3 µM (inactive). For the same compound, the GI50 (HOP-92) was 24.3 µM (inactive).

In the case of CN(C)CC/C(=N\Nc1ccc(Cl)cc1Cl)c1ccccc1, the GI50 (UO-31) is reported as 2.37 µM (inactive), the GI50 (SK-OV-3) is reported as 12.3 µM (inactive) and the GI50 (SK-MEL-5) is reported as 14.6 µM (inactive). The GI50 (RXF 393) was 7.96 µM (inactive), the GI50 (HL-60) was 5.07 µM (inactive) and the GI50 (COLO 205) was 15.1 µM (inactive). For the same compound, the GI50 (NCI-H23) was 17 µM (inactive), the GI50 (NCI-H460) was 13.8 µM (inactive) and the GI50 (HCT-15) was 12.4 µM. For the same compound, the GI50 (Malme-3M) was 23.3 µM (inactive), the GI50 (KM-20L2) was 14.3 µM (inactive) and the GI50 (NCI-H522) was > 10 µM (inactive). For the same compound, the GI50 (OVCAR-5) was 16.9 µM (inactive), the GI50 (SW-620) was 16 µM (inactive) and the GI50 (SK-MEL-28) was 15.2 µM (inactive).

With COc1cc2c(c(OC)c1OC)-c1ccc(SC)c(=O)cc1[C@@H](NC(=O)c1cccc([N+](=O)[O-])c1)CC2 the GI50 (UO-31) was 0.0516 µM (active), the GI50 (SK-OV-3) was 0.021 µM (active) and the GI50 (SK-MEL-5) was 0.0179 µM (active). The GI50 (HL-60) was < 0.01 µM (active), the GI50 (COLO 205) was 0.0168 µM (active) and the GI50 (CAKI-1) was 0.049 µM (active). The GI50 (NCI-H23) was < 0.01 µM (active), the GI50 (NCI-H226) was < 0.01 µM (active) and the GI50 (Malme-3M) was 0.0161 µM (active). For the same compound, the GI50 (KM-20L2) was 0.0172 µM (active), the GI50 (NCI-H522) was < 0.01 µM (active) and the GI50 (OVCAR-5) was > 100 µM (inactive). For the same compound, the GI50 (SW-620) was 0.0276 µM (active) and the GI50 (SK-MEL-28) was 0.0414 µM (active).

For CC(=O)CC(=O)CCC(=O)Nc1cccc(C(F)(F)F)c1, the GI50 (UO-31) was > 100 µM (inactive), the GI50 (SK-OV-3) was > 100 µM (inactive) and the GI50 (SK-MEL-5) was > 100 µM (inactive). The GI50 (HL-60) was > 100 µM (inactive), the GI50 (COLO 205) was > 100 µM (inactive) and the GI50 (CAKI-1) was > 100 µM (inactive). For the same compound, the GI50 (NCI-H23) was > 100 µM (inactive), the GI50 (NCI-H460) was > 100 µM (inactive) and the GI50 (HCT-15) was over 100 µM. The GI50 (NCI-H226) was > 100 µM (inactive), the GI50 (Malme-3M) was > 100 µM (inactive) and the GI50 (KM-20L2) was > 100 µM (inactive). For the same compound, the GI50 (NCI-H522) was > 100 µM (inactive), the GI50 (OVCAR-5) was > 100 µM (inactive) and the GI50 (SW-620) was > 100 µM (inactive). For the same compound, the GI50 (HOP-92) was > 100 µM (inactive).

With COC1=CC(=O)C2=C(C1=O)[C@H]1CC[C@]3(C)[C@@H](OC(C)=O)CC[C@H]3[C@@H]1CC2 the GI50 (UO-31) was > 100 µM (inactive), the GI50 (SK-OV-3) was > 100 µM (inactive) and the GI50 (SK-MEL-5) was 21.4 µM (inactive). For the same compound, the GI50 (RXF 393) was 61.2 µM (inactive), the GI50 (BT-549) was > 100 µM (inactive) and the GI50 (HL-60) was 16.4 µM (inactive). For the same compound, the GI50 (COLO 205) was 44.2 µM (inactive), the GI50 (CAKI-1) was 49 µM (inactive) and the GI50 (NCI-H23) was 40.3 µM (inactive). The GI50 (NCI-H460) was 71 µM (inactive), the GI50 (HCT-15) was 49.5 µM and the GI50 (NCI-H226) was 75.2 µM (inactive). For the same compound, the GI50 (DU-145) was 67.8 µM (inactive), the GI50 (Malme-3M) was 30.3 µM (inactive) and the GI50 (NCI-H522) was > 100 µM (inactive). The GI50 (OVCAR-5) was 37.8 µM (inactive), the GI50 (SW-620) was > 100 µM (inactive) and the GI50 (SK-MEL-28) was > 100 µM (inactive). For the same compound, the GI50 (HOP-92) was 7.93 µM (inactive).

CNC1=Nc2ccc(Cl)cc2C(OP(=O)(N2CCOCC2)N2CCOCC2)=NC1 was tested, and the GI50 (UO-31) was > 100 µM (inactive), the GI50 (SK-MEL-5) was > 100 µM (inactive) and the GI50 (RXF 393) was > 100 µM (inactive). For the same compound, the GI50 (HL-60) was > 100 µM (inactive), the GI50 (CAKI-1) was > 100 µM (inactive) and the GI50 (NCI-H23) was > 100 µM (inactive). The GI50 (NCI-H460) was > 100 µM (inactive), the GI50 (HCT-15) was over 100 µM and the GI50 (NCI-H226) was > 100 µM (inactive). The GI50 (Malme-3M) was > 100 µM (inactive), the GI50 (KM-20L2) was > 100 µM (inactive) and the GI50 (NCI-H522) was 26.5 µM (inactive). For the same compound, the GI50 (OVCAR-5) was > 100 µM (inactive), the GI50 (SW-620) was > 100 µM (inactive) and the GI50 (SK-MEL-28) was > 100 µM (inactive).

For CCC(=O)c1c(NOC2OC(COC(C)=O)C(OC(C)=O)C(OC(C)=O)C2OC(C)=O)nc(OC)n(C)c1=O (centres undefined), the GI50 (SK-MEL-5) was > 100 µM (inactive), the GI50 (RXF 393) was > 100 µM (inactive) and the GI50 (COLO 205) was > 100 µM (inactive). The GI50 (NCI-H23) was > 100 µM (inactive), the GI50 (NCI-H460) was > 100 µM (inactive) and the GI50 (HCT-15) was over 100 µM. For the same compound, the GI50 (NCI-H226) was 50.1 µM (inactive), the GI50 (KM-20L2) was > 100 µM (inactive) and the GI50 (NCI-H522) was > 100 µM (inactive). For the same compound, the GI50 (OVCAR-5) was > 100 µM (inactive), the GI50 (SW-620) was > 100 µM (inactive) and the GI50 (SK-MEL-28) was > 100 µM (inactive).
